In US4469631A, “Fusion peptides comprising an expressible bacterial gene and β-endorphin” (The Regents of the University of California, priority 1982, dated 1984):

Legend:
opiate receptors = conditions: Li, C. H., et al, Proc. Natl. Acad. Sci. 76, 3276 (1979); cited from earlier work
[1] = tested on: prostaglandin E1-stimulated adenylate cyclase of NG 108-15 cells; experiment: Inhibition of prostaglandin E1-stimulated adenylate cyclase activity in neuroblastoma-glioma hybrid cell line NG 108-15; type: biochemical; conditions: result in words; for reversal of the adenylate cyclase inhibition by naloxone: naloxone added
[2] = tested on: antiserum directed against mouse β-endorphin; experiment: Immunological activity: competition with 125I-labeled human β-endorphin for antiserum (radioimmunoassay); type: binding; conditions: dilution series of extract, 4° C., 24 hours; FIG. 5
Protocol: Immunological activity of β-endorphin produced according to the present invention was measured by its ability to compete with radioactively labeled human β-endorphin for antiserum directed against mouse β-endorphin. The human hormone differs from that of mouse only at position 27, where a tyrosine is present instead of histidine residue. […] Antiserum to mouse β-endorphin was prepared as described by Allen, et al., Proc. Nat'l. Acad. Sci. 75, 4972 (1978). […]
In the assay, a dilution series of β-endorphin sample prepared according to the present invention was incubated with a fixed amount of labeled human endorphin and a fixed amount of antiserum. […] The percentage of radioactivity remaining in the pellet was compared to the total radioactivity determined prior to incubation and plotted as a function of the concentration of the cell extracts.

[3] = tested on: rat brain opiate receptors; experiment: Receptor binding activity: competitive inhibition of binding of labeled opiate agonist or antagonist to rat brain membranes; conditions: result in words
Protocol: The opiate receptor preparation was prepared from rat membrane preparation isolated from male Sprague-Dawley rats (200-220 g) killed by decapitation. The brains, except for the cerebellum, were homogenized in 40 volumes of ice-cold Tris-HCl buffer pH 7.7. The homogenates were centrifuged at 600 g for 5 minutes, then the supernatant fluid was centrifuged at 49,000 g at 4° C. for 15 minutes. The pellets were re-suspended in 5 ml of 0.05 M Tris-HCl buffer pH 7.7 and incubated at 37° C. for 30 minutes, then centrifuged at 49,000 g at 4° C. for another 15 minutes. The final pellet from each rat brain was then re-suspended in 40 ml of 0.05 M Tris-HCl buffer pH 7.7 containing 100 μg/ml of Bacitracin and used for the binding assays.
The binding experiments were performed either at 25° C. for 20 minutes or at 0° C. for 3 hours. The reaction mixtures contained 1 ml of the rat membrane preparation as described, 1.5 nM of ^3 H-methionine enkephalinamide (38 Ci/m Mole) or ^3 H-naloxone (25 Ci/m Mole) together with bacterial extracts from pβgal or pβgal-end transformed cultures (4.5 mg protein for enkephalinamide rections and 0.65 μg protein for naloxone reactions). At the end of the binding reaction the mixture was filtered under vacuum over glass fiber filters (Whatman, Clifton, N.J., GH-B filters). […]

[4] = tested on: prostaglandin E1-stimulated adenylate cyclase of NG 108-15 cells; conditions: literature; cited from earlier work

Gly^31 -endorphinylglycine
opiate agonist potency relative to endorphin (opiate receptors): more potent opiate agonists than endorphin itself

Gly^31 -endorphinamide
opiate agonist potency relative to endorphin (opiate receptors): more potent opiate agonists than endorphin itself

β-endorphin (YGGFMTSEKSQTPLVTLFKNAIIKNAHKKGQ; Beta-endorphin; UniProt P01193 205-235, looked up) [mouse β-endorphin, 31 amino acid polypeptide, released from the bacterial β-galactosidase fusion protein according to the invention]
inhibition of prostaglandin E1 stimulation of adenylate cyclase activity [1]: inhibited the adenylate cyclase activity | reversal of the adenylate cyclase inhibition by naloxone [1]: the inhibition was reversed by the addition of naloxone | reversal of the adenylate cyclase inhibition by naloxone ([1]; listed as Endorphin): inhibition was reversed by addition of the opiate antagonist naloxone | inhibition of prostaglandin E1 stimulation of adenylate cyclase activity ([1]; listed as Endorphin): significant inhibition | competition with labeled human β-endorphin for antiserum against mouse β-endorphin [2]: immunologically reactive with antiserum raised against mouse endorphin | displacement of opiate agonist (enkephalinamide) and opiate antagonist (naloxone) from rat brain opiate receptors [3]: effective inhibitor | displacement of opiate agonist (enkephalinamide) and opiate antagonist (naloxone) from rat brain opiate receptors ([3]; listed as Endorphin): displaced both the opiate agonist and the opiate antagonist

CN1CC[C@]23c4c5ccc(O)c4O[C@H]2[C@@H](O)C=C[C@H]3[C@H]1C5 [morphine]
inhibition of prostaglandin E1 stimulation of adenylate cyclase [4]: This stimulation is inhibited by morphine

Gly^31 -endorphin (YGGFMTSEKSQTPLVTLFKNAIIKNAYKKGG; Beta-endorphin; UniProt P01189 237-267, looked up, variant E31G) ["super-agonist" endorphin analog described by Li, C; H]
opiate agonist potency relative to endorphin (opiate receptors): more potent opiate agonists than endorphin itself

C=CCN1CC[C@]23c4c5ccc(O)c4O[C@H]2C(=O)CC[C@@]3(O)[C@H]1C5 [naloxone]
prevention of the inhibitory effect of morphine on stimulated adenylate cyclase [4]: the inhibitory affect of morphine can be prevented by naloxone
